# Laboratory results as given in patent US7214714B2, “20-hydroxyeicosatetraenoic acid production inhibitors” (Taisho Pharmaceutical Co. Ltd., priority 2001, dated 2007).
# Columns and labels:
# [1] = biological target: 20-HETE-Producing Enzyme derived from Human Renal Microsome; experiment: Inhibitory action to 20-HETE-producing enzyme derived from human renal microsome; assay type: biochemical; settings: human renal microsome fraction, tritium-arachidonic acid substrate, NADPH, 37° C., 1.5 hours, pH 7.4; read-out: IC50 (inhibition of 20-HETE production)
# Description: Inhibitory Action to 20-HETE-Producing Enzyme derived from Human Renal Microsome
# With regard to the compounds listed in the above table, their inhibitory actions to 20-HETE production were tested.
# This test was carried out in accordance with a method mentioned in J. Pharmacol. Exp. Ther., volume 268, page 474 (1994).
# A solution of the test compound adjusted to 1 μM using DMSO was added to a 50 mM of 3-morpholinopropanesulfonic acid buffer (MOPS) (pH 7.4) containing 5 mM of magnesium chloride and 1 mM of sodium ethylenediaminetetraacetate (EDTA), then human renal microsome fraction (Human Cell Culture Center, Anatomic Gift Foundation), [5,6,8,9,11,12,15]tritium-arachidonic acid and NADPH were added thereto as an enzymatic source, a substrate and a coenzyme, respectively and reaction was carried out at 37° C. for 1.5 hours. Formic acid was added to the reaction solution to stop the reaction and then acetonitrile was added thereto (final concentration: 50%). Amount of 20-HETE produced thereby was measured using a high performance liquid chromatography equipped with a radioactive substance detector having an ODS column (Biosil C18; manufactured by Biorad).
# Amount of 20-HETE produced when no compound was added was defined as 100% and the concentration of the compound when production of 20-HETE was inhibited to an extent of 50% upon addition of a compound (IC50 value) was calculated.
structure (smiles),measurement,setting,value
O/N=C/Nc1ccc(N2CCN(C3CCCCC3)CC2)cc1 [Compound 105],IC50,[1],14.8 nM
Cc1cc(N2CCN(CCN3CCCC3)CC2)ccc1N/C=N/O.Cl [Compound 97],melting point,,196 to 198 °C (dec.)
same,IC50,[1],758 nM
O/N=C/Nc1ccc(N2CCN(C3CCCCC3)CC2)c(Cl)c1 [Compound 107],IC50,[1],41.9 nM
O/N=C/Nc1ccc(N2CCC3(CC2)OCCO3)c(Cl)c1 [Compound 35],melting point,,174 to 176 °C
same,IC50,[1],5 nM
CN1CCN(c2ccc(N/C=N/O)cc2Cl)CC1 [Compound 68],melting point,,188 to 189 °C
same,IC50,[1],107 nM
CC(=O)N1CCN(c2ccc(N/C=N/O)cn2)CC1 [Compound 129],melting point,,191 to 192 °C (dec.)
same,IC50,[1],8.3 nM
O/N=C/Nc1ccc(N2CCN(c3ccccn3)CC2)c(Cl)c1 [Compound 131],melting point,,94 to 96 °C
same,IC50,[1],3.5 nM
CCN1CCN(c2ccc(N/C=N/O)cc2)CC1 [Compound 72],melting point,,220 to 222 °C
same,IC50,[1],39.2 nM
Cl.O/N=C/Nc1ccc(N2CCN(CCN3CCCC3)CC2)c(F)c1 [Compound 93],melting point,,205 °C (dec.)
same,IC50,[1],135 nM
CCN1CCN(c2ccc(N/C=N/O)cc2Cl)CC1 [Compound 74],melting point,,207 to 209 °C
same,IC50,[1],73.2 nM
CN(C)CCN1CCN(c2ccc(N/C=N/O)cc2)CC1.Cl [Compound 86],melting point,,188 to 190 °C (dec.)
same,IC50,[1],962 nM
O/N=C/Nc1ccc(N2CCSCC2)cc1 [Compound 1],melting point,,138 to 141 °C
O/N=C/Nc1ccc(N2CCN(C3CCCCC3)CC2)c(C(F)(F)F)c1 [Compound 110],melting point,,93 to 96 °C
same,IC50,[1],531 nM
Cc1cc(N2CCCC3CCCCC32)ccc1N/C=N/O (stereo not drawn) [Compound 46],melting point,,154 to 156 °C
same,IC50,[1],33 nM
Cl.O/N=C/Nc1ccc(N2CCN(CCN3CCCC3)CC2)c(Cl)c1 [Compound 94],melting point,,161 to 163 °C
same,IC50,[1],222 nM
"O/N=C/Nc1ccc(N2CCSCC2)c(Cl)c1 [Compound 3, N-hydroxyl-N′-(3-chloro-4-thiomorpholinophenyl)formamidine]",melting point,,137 to 138.5 °C
same,IC50,[1],3.6 nM
CCN(CC)C(=O)C1CCCN(c2ccc(N/C=N/O)cc2C(F)(F)F)C1 (stereo not drawn) [Compound 64],melting point,,150 to 156 °C
same,IC50,[1],19.4 nM
O/N=C/Nc1ccc(N2CCSCC2)c(Br)c1 [Compound 4],melting point,,149 to 151 °C
same,IC50,[1],2.3 nM
Cl.O/N=C/Nc1ccc(N2CCN(CCN3CCCC3)CC2)c(C(F)(F)F)c1 [Compound 96],melting point,,229 to 231 °C (dec.)
same,IC50,[1],1530 nM
O/N=C/Nc1ccc(N2CCCCCC2)c(F)c1 [Compound 22],melting point,,112 to 115 °C
same,IC50,[1],2.1 nM
O/N=C/Nc1ccc(N2CCOCC2)nc1 [Compound 128],melting point,,172 to 174 °C
CCN1CCN(c2ccc(N/C=N/O)cc2Br)CC1 [Compound 75],melting point,,204.5 to 206.5 °C
same,IC50,[1],154 nM
O/N=C/Nc1ccc(N2CCC3(CC2)OCCO3)c(F)c1 [Compound 34],melting point,,165 to 167 °C
same,IC50,[1],7 nM
O/N=C/Nc1ccc(N2CCCCCC2)c(C(F)(F)F)c1 [Compound 26],melting point,,127 to 128.5 °C
same,IC50,[1],25.2 nM
"O/N=C/Nc1ccc(N2CCOCC2)nc1 [Compound 127, N-[2-(morpholino)pyridine-5-yl]-N′-hydroxyformamidine]",IC50,[1],215 nM
O/N=C/Nc1ccc(N2CC=CC2)c(Cl)c1 [Compound 11],melting point,,118 to 121 °C
same,IC50,[1],12.5 nM
Cl.O/N=C/Nc1ccc(N2CCN(C3CCCCC3)CC2)nc1 [Compound 123],melting point,,224 to 226 °C (dec.)
same,IC50,[1],90.6 nM
O/N=C/Nc1ccc(N2CCC3(CC2)OCCO3)cc1 [Compound 33],melting point,,157 to 158.5 °C
same,IC50,[1],3.6 nM
OCCN1CCN(c2ccc(N/C=N/O)cc2Br)CC1 [Compound 82],melting point,,190 to 192 °C (dec.)
same,IC50,[1],44 nM
O/N=C/Nc1ccc(N2CCC(O)CC2)c(F)c1 [Compound 48],melting point,,159 to 161 °C
same,IC50,[1],3.2 nM
OCCC1CCN(c2ccc(N/C=N/O)cn2)CC1 [Compound 132],melting point,,151 to 153 °C
same,IC50,[1],37.3 nM
Cl.OCCN1CCN(c2ccc(N/C=N/O)cc2Cl)CC1 [Compound 81],melting point,,200 to 202 °C (dec.)
same,IC50,[1],23.3 nM
COCCN(CCOC)c1ccc(N/C=N/O)cc1 [Compound 133],melting point,,97 to 98 °C
same,IC50,[1],340 nM
O/N=C/Nc1ccc(N2CCCCCC2)c(Br)c1 [Compound 24],melting point,,103.5 to 105 °C
same,IC50,[1],4.2 nM
O/N=C/Nc1ccc(N2CCSCC2)c(F)c1 [Compound 2],melting point,,141 to 142 °C (dec.)
same,IC50,[1],3.2 nM
O/N=C/Nc1ccc(N2CC=CC2)c(Br)c1 [Compound 12],IC50,[1],16 nM
Cl.O/N=C/Nc1ccc(N2CCN(C3CCCCC3)CC2)c(F)c1 [Compound 106],melting point,,207 °C (dec.)
same,IC50,[1],105 nM
CCN1CCN(c2ccc(N/C=N/O)cc2C(F)(F)F)CC1 [Compound 77],melting point,,158 to 159 °C
same,IC50,[1],509 nM
CCN1CCN(c2ccc(N/C=N/O)cc2F)CC1 [Compound 73],melting point,,197 to 200 °C
same,IC50,[1],37.2 nM
Cc1cc(N2CC=CCC2)ccc1N/C=N/O [Compound 20],melting point,,146 to 149 °C
same,IC50,[1],663 nM
O/N=C/Nc1ccc(N2CCCCCCC2)c(F)c1 [Compound 28],melting point,,137 to 139 °C
same,IC50,[1],5.7 nM
CCOC(=O)C1CCN(c2ccc(N/C=N/O)cc2Cl)CC1 [Compound 134],melting point,,135 to 138 °C (dec.)
same,IC50,[1],4 nM
O/N=C/Nc1ccc(N2CC=CCC2)c(Cl)c1 [Compound 16],melting point,,135 to 137.5 °C
same,IC50,[1],2.2 nM
O/N=C/Nc1ccc(N2CC=CCC2)c(F)c1 [Compound 15],melting point,,129 to 130 °C
same,IC50,[1],3.9 nM
Cl.O=C(CN1CCN(c2ccc(N/C=N/O)cc2Cl)CC1)N1CCOCC1 [Compound 100],melting point,,110 to 114 °C
same,IC50,[1],36.3 nM
Cl.O=C(CN1CCN(c2ccc(N/C=N/O)cc2)CC1)N1CCOCC1 [Compound 98],melting point,,167 to 169 °C (dec.)
same,IC50,[1],69 nM
O=C(CN1CCN(c2ccc(N/C=N/O)cc2Br)CC1)N1CCOCC1 [Compound 101],IC50,[1],20.8 nM
O/N=C/Nc1ccc(N2CCCCCCC2)cc1 [Compound 27],melting point,,170 to 173 °C
same,IC50,[1],10.2 nM
OCCC1CCN(c2ccc(N/C=N/O)cc2F)CC1 [Compound 55],melting point,,172 to 176 °C
same,IC50,[1],34.2 nM
O/N=C/Nc1ccc(N2CCCCCC2)c(Cl)c1 [Compound 23],melting point,,113 to 114 °C
same,IC50,[1],2.2 nM
Cc1cc(N2CCC3(CC2)OCCO3)ccc1N/C=N/O [Compound 39],melting point,,147 to 150 °C
same,IC50,[1],4.3 nM
Cc1cc(N2CCC(CCO)CC2)ccc1N/C=N/O [Compound 58],melting point,,152 to 154 °C
same,IC50,[1],31.2 nM
O/N=C/Nc1ccc(N2CC=CCC2)c(C(F)(F)F)c1 [Compound 19],melting point,,136.5 to 138 °C
same,IC50,[1],18 nM
O/N=C/Nc1ccc(N2CCC(O)CC2)c(Cl)c1 [Compound 49],melting point,,93 to 97 °C
same,IC50,[1],3.4 nM
Cl.O/N=C/Nc1ccc(N2CCN(C3CCCCC3)CC2)c(Br)c1 [Compound 108],melting point,,222 to 223 °C (dec.)
same,IC50,[1],293 nM
O=C(CN1CCN(c2ccc(N/C=N/O)cc2C(F)(F)F)CC1)N1CCOCC1 [Compound 103],melting point,,75 to 77 °C
same,IC50,[1],21.4 nM
Cc1cc(N2CCN(C3CCCCC3)CC2)ccc1N/C=N/O.Cl [Compound 111],melting point,,230 to 232 °C (dec.)
same,IC50,[1],70.8 nM
COc1cc(N2CCOCC2)ccc1N/C=N/O [Compound 130],melting point,,189 to 190 °C (dec.)
same,IC50,[1],46.1 nM
CC1CN(c2ccc(N/C=N/O)cc2Cl)CC(C)O1 (stereo not drawn) [Compound 9],melting point,,163 to 164 °C (dec.)
same,IC50,[1],46.9 nM
O/N=C/Nc1ccc(N2CCN(CCN3CCCC3)CC2)c(Br)c1 [Compound 95],melting point,,163 to 165 °C
same,IC50,[1],75.8 nM
Cl.OCCN1CCN(c2ccc(N/C=N/O)cc2F)CC1 [Compound 80],melting point,,180 to 182 °C (dec.)
same,IC50,[1],45.4 nM
Cl.OCCN1CCN(c2ccc(N/C=N/O)cc2)CC1 [Compound 79],melting point,,170 °C (dec.)
same,IC50,[1],71.9 nM
COCCN(CCOC)c1ccc(N/C=N/O)cc1Cl [Compound 119],melting point,,95 to 96.5 °C
OCCC1CCN(c2ccc(N/C=N/O)cc2)CC1 [Compound 54],melting point,,186 to 189 °C
same,IC50,[1],34.7 nM
